US20250176904A1, “PRE-DOSING METHOD OF ASSESSING DRUG BENEFITS IN PATIENTS” (priority 2022, published 2025)
Where “and” joins values, the source holds several entries; their conditions need not be identical. Equal entries are not always repeated. Entries after “also recorded” stand apart in the source; their conditions may differ.

What was measured:
Male Long Evans rats = assay: Progressive ratio responding for food (lever press, break point, session duration); assay type: in vivo
Procedure: Animals and housing: Male Long Evans rats were used (source: Charles River Laboratories, St. Constant, Quebec). All study animals were singly housed in a vivarium under a 12 h light:dark cycle (lights on: 06:00 h-18:00 h). All behavioural testing was during the light phase. Rats were placed on a restricted diet regimen, where they were fed once a day with approximately 20 g of standard laboratory chow at the completion of testing procedures (16:00 h-18:00 h). For these animals, water was freely available except during testing. All animal use procedures were performed in accordance with the principles of the Canadian Council on Animal Care (CCAC).
Methods: A total of 72 rats were used in the psilocybin experiment. The basic test design involved training animals to lever press for a food reward (45 mg Bioserv pellets) under a progressive ratio (PR) schedule in which the number of responses required to achieve a pellet increases for successive reinforcers. The progressive ratio was derived from the equation ratio=[5×e^(0.2×reinforcer #)−5], and was as follows: […], etc.
Subjects were administered psilocybin (0.025, 0.05, 0.1 mg/kg) or vehicle control according to Latin square design, in which each animal received each treatment over repeated test sessions with 2-3 day intervals between each testing cycle. Subjects were also subgrouped into low responders (N=24) based on having the lowest average break point measure recorded over 7 days prior to testing and a separate analysis was conducted on this cohort.
Statistical analysis: Data are presented as means±SEM. Data from the progressive ratio task was analysed by one way (treatment) repeated measures ANOVA (Statistica Version 11, Statsoft Inc. [2012]). In the event of a significant main effect, post-hoc comparisons were carried out with Dunnett's test for comparison of drug treatment to vehicle control. Both study cohorts of “All” and “Low responders” were analysed separately. In all cases the accepted level of significance was P<0.05. Effect sizes for group mean differences were also calculated using partial eta squared (Statistica Version 11, Statsoft Inc. [2012]). In addition a correlational analysis (parametric: Pearson R; non-parametric: Spearman R) was conducted at each dose level to look at the relationship between baseline (vehicle) response and magnitude of change in break point and lever press following each psilocybin dose.

healthy volunteers = conditions: human, in vivo, po
[1] = all 72 rats, psilocybin 0.025, 0.05, 0.1 mg/kg SC vs vehicle, ANOVA main effect
[2] = low responder subgroup N=24, psilocybin 0.05-0.1 mg/kg relative to vehicle control

**Q.** What does the source list for `CN(C)CCc1c[nH]c2cccc(OP(=O)(O)O)c12` [Psilocybin, 4-phosphoryloxy-N,N-dimethyltryptamine]?
**A.** number of lever press (Male Long Evans rats; [1]): no main effect of treatment; session duration (Male Long Evans rats; [1]): no main effect of treatment; break point (Male Long Evans rats; all 72 rats, psilocybin 0.025, 0.05, 0.1 mg/kg SC vs vehicle, post-hoc comparison): no treatment group was significantly different to vehicle; relationship between baseline responding and % change in break point or lever press (Male Long Evans rats; low responder subgroup N=24, 0.025 mg/kg SC): no such correlation; also recorded: no significant correlation; relationship between baseline responding and % change in break point or lever press (Male Long Evans rats; low responder subgroup N=24, 0.05 mg/kg SC, Pearson R and Spearman R): inverse correlation; also recorded: significant correlation; relationship between baseline responding and % change in break point or lever press (Male Long Evans rats; low responder subgroup N=24, 0.1 mg/kg SC, Pearson R and Spearman R): inverse correlation; also recorded: significant correlation; session duration (Male Long Evans rats; low responder subgroup N=24, 0.1 mg/kg, mean±SEM): 18.7 ± 2.5 min; session duration (treatment effect) (Male Long Evans rats; low responder subgroup N=24, psilocybin 0.025-0.1 mg/kg vs vehicle, ANOVA): no treatment effect; break point (Male Long Evans rats; [2]): increases; lever press (Male Long Evans rats; [2]): increases; RTI Median Five-Choice Reaction Time 2 Hr (healthy volunteers): 381 and 347 and 377 and 386.5 and 446 and 343; RTI Median Five-Choice Reaction Time 4 Hr (healthy volunteers): 330 and 346 and 377 and 413 and 431 and 330.5
